Results from patent publication US11045473B2, “Compositions and methods for therapy of prostate cancer using drug combinations to target polyamine biosynthesis and related pathways” (Health Research, Inc., priority 2015, dated 2021).
Entries after “also recorded” stand apart in the source; their conditions may differ.

Experiments:
Type in all cases: cell-based, human
SAT1 [1] = test: SAT1 mRNA and protein expression in LNCaP cells treated with BENSpm; details: BENSpm 0.1 to 10 μM
Experimental: (§1) FIG. 11 depicts a Western blot showing AMD1, ODC1, SAT1 and B-actin protein expression in wild type LNCaP cells pretreated with +/−DHT for 24 hours followed by BENSpm for 96 hours.
(§2) We next analyzed whether the metabolic stress in CaP cells caused by high biosynthetic flux to maintain polyamine pools can be enhanced by increasing the activity of SAT1. We tested whether this could cause increased secretion of acetylated polyamines, putting intracellular pools in deficit, which should necessitate more biosynthesis, and should therefore potentiate any benefit of inhibiting the MSP. To conduct this analysis we used LNCaP cells that stably overexpress SAT1 in a Tet-off system (LNG53 cells, described in Kee, K., et al. J Biol Chem 279, 27050-27058 (2004)).

SAT1 [2] = test: SAT1 activity in response to BENSpm treatment
From the text: as §2

ODC1 = test: Western blot of ODC1 in LNCaP cells treated with BENSpm; details: BENSpm for 96 hours
Experimental: as §1, §2

AMD1 = test: Western blot of AMD1 in LNCaP cells treated with BENSpm; details: BENSpm for 96 hours
Experimental: as §1, §2

LNCaP = test: Proliferation of wild type LNCaP, BENSpm 24 h pre-treatment then 96 hr MTDIA
Experimental: (§3) Tet was removed 24 hours prior to 96 hr treatment with MTDIA. […] Cells were pre-treated with BENSpm for 24 hours followed by 96 hr treatment with MTDIA.
as §2

DU145 = test: Proliferation of DU145, BENSpm 24 h pre-treatment then 96 hr MTDIA; details: AR negative DU145, 2.5 μM BENSpm
Experimental: as §3, §2

MTAP [3] = test: Western blot of MTAP protein expression in FaDu; details: 10 and 20 uM MTA for 4 days
Experimental: (§4) FIG. 9. (A) Proliferation curves for LNCaP, DU145 and PC3 treated with MTDIA in the absence or presence of 10 or 20 uM MTA, for 4 and (B) 8 days. […] (C) Western blot analysis of FaDu, LNCaP, and DU145 cells after indicated treatments of MTA (0, 10, or 20 uM) or the respective 4 day IC25 and IC50 dose of MTDIA for each cell line plus or minus MTA immunoblotted with antibodies against MTAP, SMS, and SRM, with B-actin as a loading control. Western blot images are representative of biological triplicates.
(§5) Western Blotting—Whole cell extracts were prepared in RIPA buffer (150 mM NaCl, 1.0% NP-40, 0.5% deoxycholate, 0.1% SDS, 50 mM Tris-HCl pH 8.0, 5 mM EDTA and 0.5 mM PMSF) supplemented with 1× proteinase inhibitor. Protein concentrations were determined by Bradford Assay (Thermo Scientific, Cat #1856209). […] MTAP for Westerns was purchased from Proteintech™ (Cat #11475-1-AP. SRM and SMS were purchased from Abcam® (Cat #ab111884 and ab156879). B-actin antibody for Westerns was purchased from Sigma-Aldrich (Cat #A5441) and GAPDH was from Santa Cruz Biotecnology Inc. (Cat #sc-25778). Films were scanned using the Biorad ChemiDoc XRS, and band intensities were calculated using Image Lab™. Intensity values were normalized to B-actin loading control band intensities and made relative to control treatment conditions.

MTAP [4] = test: Western blot of MTAP protein expression in LNCaP; details: MTA treatment
Experimental: as §4, §5

MTAP [5] = test: Western blot of MTAP protein expression in DU145; details: DU145, 10 and 20 uM MTA for 4 days
Experimental: as §4, §5

In the case of CCNCCCNCCCNCCCNCC [BENSpm, N(1),N(11)-bisethylnorspermine], the “SAT1 mRNA” value (SAT1 [1]) is reported as “increased”, the SAT1 protein (SAT1 [1]) is reported as “increased” and the “SAT1 activity, dose dependent increase” value (SAT1 [2]; (+) dihydrotestosterone (DHT) conditions) is reported as 17-40 fold. The “SAT1 activity, dose dependent increase” value (SAT1 [2]; (−) DHT conditions) was 6-20 fold, the “effect on ODC1” value (ODC1) was “minimal effects” and the “effect on AMD1” value (AMD1) was “minimal effects”. For the same compound, the “sensitivity to MTDIA” value (LNCaP; 2.5 μM BENSpm) was “more sensitive to MTDIA; also recorded: greatly increased sensitivity to MTDIA”, the effect on proliferation (LNCaP; 2.5 μM BENSpm alone) was “no effect on proliferation” and the “sensitivity to MTDIA” value (DU145) was “more sensitive to MTDIA; also recorded: strongly increased sensitivity to MTDIA”.

With CSC[C@H]1O[C@@H](n2cnc3c(N)ncnc32)[C@H](O)[C@@H]1O [MTA] the MTAP protein expression (MTAP [3]) was “slightly decreased”, the MTAP levels (MTAP [4]) was “unchanged” and the MTAP protein expression (MTAP [5]) was “slightly increased”.
